Test results as given in ChEMBL document CHEMBL5154702, “Synthesis and biological evaluation of aminobenzamides containing purine moiety as class I histone deacetylases inhibitors” (Bioorg Med Chem, 2022).
pIC50: −log10 of the molar value.

Key:
Histone deacetylase = type: cell-based, Homo sapiens; conditions: hela
HCT-116 = test: Antiproliferative activity against human HCT-116 cells measured after 48 hrs by MTT assay; type: functional, cell-based; conditions: HCT-116, 48 h
MDA-MB-231 [1] = test: Antiproliferative activity against human MDA-MB-231 cells measured after 48 hrs by MTT assay; type: functional, cell-based; conditions: MDA-MB-231, 48 h
A549 = test: cells; type: functional, cell-based; conditions: Homo sapiens, A549, 48 h
SGC-7901 = test: Antiproliferative activity against human SGC-7901 cells measured after 48 hrs by MTT assay; type: functional, cell-based; conditions: SGC-7901, 48 h
HepG2 = test: cells; type: functional, cell-based; conditions: Homo sapiens, HepG2, 48 h
K562 = test: cells; type: functional, cell-based; conditions: Homo sapiens, K562, 48 h
in vitro = conditions: dog, liver microsomes
Histone deacetylase 8 = biological target: T1, Histone deacetylase 8 (Homo sapiens, UniProt Q9BY41); test: Inhibition of human full-length C-terminal His-tagged HDAC8 expressed in baculovirus infected Sf9 insect cell using fluorogenic HDAC class 2a substrate measured after 30 mins by fluorimetry
T1 sequence (Q9BY41 whole entry): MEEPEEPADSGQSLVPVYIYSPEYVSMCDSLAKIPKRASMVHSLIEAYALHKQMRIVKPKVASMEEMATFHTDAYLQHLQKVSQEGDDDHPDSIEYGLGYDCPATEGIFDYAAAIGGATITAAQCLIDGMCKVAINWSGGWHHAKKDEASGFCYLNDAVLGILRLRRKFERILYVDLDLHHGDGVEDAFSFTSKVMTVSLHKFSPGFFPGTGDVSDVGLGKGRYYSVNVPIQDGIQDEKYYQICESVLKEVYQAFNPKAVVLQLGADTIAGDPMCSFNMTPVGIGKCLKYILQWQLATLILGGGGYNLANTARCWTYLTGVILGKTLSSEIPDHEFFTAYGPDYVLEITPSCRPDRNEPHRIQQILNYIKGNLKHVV

[2] = biological target: T2, Protein deacetylase HDAC6 (Homo sapiens, UniProt Q9UBN7); test: Inhibition of recombinant human N-terminal GST-tagged HDAC6 (1 to 1215 residues) expressed in Sf9 insect cells using fluorogenic HDAC substrate 3 measured after 30 mins by fluorimetry
T2 sequence (Q9UBN7 whole entry): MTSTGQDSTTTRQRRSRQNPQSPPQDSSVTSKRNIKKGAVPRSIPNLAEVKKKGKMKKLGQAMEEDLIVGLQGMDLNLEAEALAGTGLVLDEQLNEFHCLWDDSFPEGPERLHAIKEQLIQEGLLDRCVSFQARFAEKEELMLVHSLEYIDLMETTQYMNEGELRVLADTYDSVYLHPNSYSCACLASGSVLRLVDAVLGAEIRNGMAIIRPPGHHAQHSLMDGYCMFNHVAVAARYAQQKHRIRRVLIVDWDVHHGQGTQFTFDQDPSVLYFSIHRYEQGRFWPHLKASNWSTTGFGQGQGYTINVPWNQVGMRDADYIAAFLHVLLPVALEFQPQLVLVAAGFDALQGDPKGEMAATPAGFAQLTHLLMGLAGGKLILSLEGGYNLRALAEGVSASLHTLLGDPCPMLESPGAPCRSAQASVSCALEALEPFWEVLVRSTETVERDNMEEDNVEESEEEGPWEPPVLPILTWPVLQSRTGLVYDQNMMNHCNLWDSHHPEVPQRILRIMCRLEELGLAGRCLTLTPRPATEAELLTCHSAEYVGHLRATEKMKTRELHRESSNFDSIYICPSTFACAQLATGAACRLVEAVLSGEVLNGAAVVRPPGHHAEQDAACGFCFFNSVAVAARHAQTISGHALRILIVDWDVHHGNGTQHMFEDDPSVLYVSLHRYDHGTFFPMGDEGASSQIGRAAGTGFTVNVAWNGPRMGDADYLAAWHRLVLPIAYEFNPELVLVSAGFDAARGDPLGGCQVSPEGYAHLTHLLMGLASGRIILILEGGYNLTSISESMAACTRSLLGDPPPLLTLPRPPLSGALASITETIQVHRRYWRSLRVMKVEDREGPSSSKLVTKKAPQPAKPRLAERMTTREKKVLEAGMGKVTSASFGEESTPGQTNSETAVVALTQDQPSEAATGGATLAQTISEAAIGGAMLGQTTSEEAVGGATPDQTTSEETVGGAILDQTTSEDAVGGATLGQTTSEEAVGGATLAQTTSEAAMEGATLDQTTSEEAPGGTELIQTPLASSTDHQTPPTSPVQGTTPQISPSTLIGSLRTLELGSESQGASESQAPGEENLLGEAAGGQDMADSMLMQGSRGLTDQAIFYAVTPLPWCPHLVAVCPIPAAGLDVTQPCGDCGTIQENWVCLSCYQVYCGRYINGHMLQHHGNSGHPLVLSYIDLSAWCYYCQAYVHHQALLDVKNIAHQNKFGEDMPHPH

[3] = biological target: Histone deacetylase 3/Nuclear receptor corepressor 2 (HDAC3/NCoR2) (Homo sapiens, UniProt O15379); test: biochemical; parameters: species or system Sf9
Histone deacetylase 3/Nuclear receptor corepressor 2 (HDAC3/NCoR2), sequence (O15379 whole entry, the tested form may be a part): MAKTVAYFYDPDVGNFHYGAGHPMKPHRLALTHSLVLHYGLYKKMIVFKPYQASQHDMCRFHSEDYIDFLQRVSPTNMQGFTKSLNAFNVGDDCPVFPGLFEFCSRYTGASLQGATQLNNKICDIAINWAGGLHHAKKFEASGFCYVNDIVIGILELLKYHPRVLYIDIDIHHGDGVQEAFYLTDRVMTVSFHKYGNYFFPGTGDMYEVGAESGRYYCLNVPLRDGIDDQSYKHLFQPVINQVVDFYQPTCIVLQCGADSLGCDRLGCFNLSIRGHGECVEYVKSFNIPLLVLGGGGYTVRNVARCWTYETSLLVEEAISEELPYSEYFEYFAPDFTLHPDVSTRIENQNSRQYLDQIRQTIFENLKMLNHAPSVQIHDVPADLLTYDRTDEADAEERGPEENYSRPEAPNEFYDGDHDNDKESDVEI
Histone deacetylase 3/Nuclear receptor corepressor 2 (HDAC3/NCoR2), sequence (Q9Y618 whole entry, further chain, the tested form may be a part): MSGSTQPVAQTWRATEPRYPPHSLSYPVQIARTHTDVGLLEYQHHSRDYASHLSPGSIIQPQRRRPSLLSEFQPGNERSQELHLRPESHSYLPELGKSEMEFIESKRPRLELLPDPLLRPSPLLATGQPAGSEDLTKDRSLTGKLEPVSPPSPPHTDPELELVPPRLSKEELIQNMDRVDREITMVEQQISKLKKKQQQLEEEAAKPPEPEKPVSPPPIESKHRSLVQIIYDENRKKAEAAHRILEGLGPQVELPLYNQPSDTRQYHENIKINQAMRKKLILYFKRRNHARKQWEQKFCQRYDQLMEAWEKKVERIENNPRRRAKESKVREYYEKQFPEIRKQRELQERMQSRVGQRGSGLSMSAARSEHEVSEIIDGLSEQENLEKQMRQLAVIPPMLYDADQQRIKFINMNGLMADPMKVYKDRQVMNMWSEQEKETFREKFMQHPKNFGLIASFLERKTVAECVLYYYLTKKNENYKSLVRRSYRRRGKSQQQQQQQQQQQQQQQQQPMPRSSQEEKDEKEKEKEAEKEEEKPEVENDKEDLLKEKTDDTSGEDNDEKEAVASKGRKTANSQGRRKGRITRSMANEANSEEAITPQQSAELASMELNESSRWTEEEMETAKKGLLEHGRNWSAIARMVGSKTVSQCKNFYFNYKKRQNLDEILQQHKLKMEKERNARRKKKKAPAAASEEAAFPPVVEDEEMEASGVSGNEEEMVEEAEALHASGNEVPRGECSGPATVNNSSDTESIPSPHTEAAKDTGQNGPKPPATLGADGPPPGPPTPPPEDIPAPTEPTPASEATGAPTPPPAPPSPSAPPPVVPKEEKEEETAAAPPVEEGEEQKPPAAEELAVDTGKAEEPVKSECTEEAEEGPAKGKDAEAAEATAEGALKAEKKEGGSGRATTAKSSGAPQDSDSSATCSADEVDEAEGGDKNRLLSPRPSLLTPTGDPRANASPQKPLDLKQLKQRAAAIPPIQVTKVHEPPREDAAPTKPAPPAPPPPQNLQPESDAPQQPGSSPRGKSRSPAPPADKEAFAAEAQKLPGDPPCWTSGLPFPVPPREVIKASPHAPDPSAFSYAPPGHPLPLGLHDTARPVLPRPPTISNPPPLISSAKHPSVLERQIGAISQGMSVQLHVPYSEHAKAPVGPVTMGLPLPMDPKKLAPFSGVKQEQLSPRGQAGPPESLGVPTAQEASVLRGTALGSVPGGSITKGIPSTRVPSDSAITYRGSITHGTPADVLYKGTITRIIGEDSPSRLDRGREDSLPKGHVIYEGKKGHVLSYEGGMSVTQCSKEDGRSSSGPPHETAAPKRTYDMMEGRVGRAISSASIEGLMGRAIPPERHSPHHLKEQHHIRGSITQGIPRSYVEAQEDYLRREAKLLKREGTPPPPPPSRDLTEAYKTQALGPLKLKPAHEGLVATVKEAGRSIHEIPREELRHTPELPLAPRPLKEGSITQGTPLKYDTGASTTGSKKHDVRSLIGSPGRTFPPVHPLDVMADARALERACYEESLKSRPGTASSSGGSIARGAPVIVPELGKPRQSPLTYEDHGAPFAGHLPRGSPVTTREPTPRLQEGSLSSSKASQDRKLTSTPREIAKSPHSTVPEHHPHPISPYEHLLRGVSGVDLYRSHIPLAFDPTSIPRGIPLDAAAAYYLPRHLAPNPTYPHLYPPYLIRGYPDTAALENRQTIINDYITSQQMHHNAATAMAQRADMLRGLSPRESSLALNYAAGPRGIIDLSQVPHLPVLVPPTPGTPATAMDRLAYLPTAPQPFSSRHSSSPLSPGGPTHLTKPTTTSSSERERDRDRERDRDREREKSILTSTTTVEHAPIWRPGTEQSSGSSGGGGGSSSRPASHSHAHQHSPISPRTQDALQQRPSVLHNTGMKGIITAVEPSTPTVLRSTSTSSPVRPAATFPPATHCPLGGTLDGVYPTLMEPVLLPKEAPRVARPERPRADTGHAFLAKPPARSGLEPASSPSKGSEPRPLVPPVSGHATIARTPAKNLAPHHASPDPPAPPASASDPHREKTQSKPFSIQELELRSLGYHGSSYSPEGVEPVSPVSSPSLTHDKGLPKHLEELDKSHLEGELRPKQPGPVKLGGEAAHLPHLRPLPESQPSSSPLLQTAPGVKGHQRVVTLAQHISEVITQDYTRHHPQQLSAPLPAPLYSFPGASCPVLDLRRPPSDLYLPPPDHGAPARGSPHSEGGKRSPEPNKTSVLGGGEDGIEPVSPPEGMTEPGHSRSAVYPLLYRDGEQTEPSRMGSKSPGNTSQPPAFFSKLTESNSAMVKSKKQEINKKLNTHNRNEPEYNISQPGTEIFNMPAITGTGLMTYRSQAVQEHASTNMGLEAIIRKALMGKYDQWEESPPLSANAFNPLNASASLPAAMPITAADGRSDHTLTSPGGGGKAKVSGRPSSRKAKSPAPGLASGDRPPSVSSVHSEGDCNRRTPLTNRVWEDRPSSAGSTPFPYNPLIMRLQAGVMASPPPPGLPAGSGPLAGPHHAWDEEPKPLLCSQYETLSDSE

Histone deacetylase 1 = Histone deacetylase 1 (Homo sapiens, UniProt Q13547); test: Inhibition of recombinant human full-length C-terminal Flag-His6-tagged HDAC1 (1 to 482 residues) expressed in Sf9 insect cells using fluorogenic HDAC substrate measured after 30 mins by fluorimetry
Histone deacetylase 1, sequence (Q13547 whole entry, the tested form may be a part): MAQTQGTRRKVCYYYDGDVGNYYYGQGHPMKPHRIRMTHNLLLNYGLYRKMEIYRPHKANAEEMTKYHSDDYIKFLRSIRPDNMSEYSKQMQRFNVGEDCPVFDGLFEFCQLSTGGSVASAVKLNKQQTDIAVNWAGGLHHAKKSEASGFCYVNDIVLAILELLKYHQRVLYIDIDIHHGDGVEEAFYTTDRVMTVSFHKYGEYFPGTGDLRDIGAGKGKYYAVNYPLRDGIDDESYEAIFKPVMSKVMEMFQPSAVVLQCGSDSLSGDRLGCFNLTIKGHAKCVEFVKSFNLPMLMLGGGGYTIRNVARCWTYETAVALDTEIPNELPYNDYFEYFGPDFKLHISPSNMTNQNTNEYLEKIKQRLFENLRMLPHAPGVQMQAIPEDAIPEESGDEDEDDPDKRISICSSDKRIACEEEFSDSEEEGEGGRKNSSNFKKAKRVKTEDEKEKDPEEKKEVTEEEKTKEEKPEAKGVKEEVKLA

Histone deacetylase 4 = Histone deacetylase 4 (Homo sapiens, UniProt P56524); test: Inhibition of recombinant human N-terminal GST-fused/C-terminal His-tagged HDAC4 (627 to 1084 residues) expressed in baculovirus infected Sf9 insect cells using fluorogenic HDAC class 2a substrate measured after 30 mins by fluorimetry
Histone deacetylase 4, sequence (P56524 whole entry, the tested form may be a part): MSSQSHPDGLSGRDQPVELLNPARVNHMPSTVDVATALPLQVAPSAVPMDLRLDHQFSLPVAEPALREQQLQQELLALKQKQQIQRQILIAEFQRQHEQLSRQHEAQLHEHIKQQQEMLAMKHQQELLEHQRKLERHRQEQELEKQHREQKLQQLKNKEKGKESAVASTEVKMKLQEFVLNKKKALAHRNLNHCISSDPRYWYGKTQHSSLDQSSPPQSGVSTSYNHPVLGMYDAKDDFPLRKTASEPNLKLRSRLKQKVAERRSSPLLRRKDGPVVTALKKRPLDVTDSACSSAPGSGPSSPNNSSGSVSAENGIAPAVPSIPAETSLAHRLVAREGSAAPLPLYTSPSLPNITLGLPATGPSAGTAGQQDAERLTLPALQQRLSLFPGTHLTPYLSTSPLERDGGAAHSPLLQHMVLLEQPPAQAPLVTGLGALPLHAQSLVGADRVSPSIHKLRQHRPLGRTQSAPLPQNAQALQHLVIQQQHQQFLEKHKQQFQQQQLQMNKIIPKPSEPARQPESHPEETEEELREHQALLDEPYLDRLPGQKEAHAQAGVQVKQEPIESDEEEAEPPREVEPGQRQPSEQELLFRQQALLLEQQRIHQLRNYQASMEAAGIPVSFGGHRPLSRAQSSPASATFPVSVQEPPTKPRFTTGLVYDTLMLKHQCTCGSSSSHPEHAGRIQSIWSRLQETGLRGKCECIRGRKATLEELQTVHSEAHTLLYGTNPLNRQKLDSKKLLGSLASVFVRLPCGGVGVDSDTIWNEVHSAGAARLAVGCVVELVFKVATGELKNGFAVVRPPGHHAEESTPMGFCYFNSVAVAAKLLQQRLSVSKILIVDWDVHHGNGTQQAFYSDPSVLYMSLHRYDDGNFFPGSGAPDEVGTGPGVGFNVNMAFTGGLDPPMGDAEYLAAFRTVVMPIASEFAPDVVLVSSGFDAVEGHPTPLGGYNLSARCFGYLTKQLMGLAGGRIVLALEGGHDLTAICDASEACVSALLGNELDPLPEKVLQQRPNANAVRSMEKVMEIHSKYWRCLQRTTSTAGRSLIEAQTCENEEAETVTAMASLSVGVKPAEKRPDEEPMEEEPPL

MDA-MB-231 [4] = test: Potency index, ratio of MS-275 IC50 to test compound IC50 for antiproliferative activity against human MDA-MB-231 cells; type: functional
MDA-MB-231 [5] = test: Potency index, ratio of SAHA IC50 to test compound IC50 for antiproliferative activity against human MDA-MB-231 cells; type: functional

IC50 (Histone deacetylase) [nM] | pIC50 (HCT-116) | pIC50 (MDA-MB-231 [1]) | pIC50 (A549) | pIC50 (SGC-7901) | SMILES | further results
1260 | 4.67 | 4.55 | 3.29 | 4.68 | CCCNc1nc(Cl)nc2c1ncn2CCCC(=O)NCc1ccc(C(=O)Nc2ccccc2N)cc1 | –
18680 | – | – | – | – | CCCCCNc1nc(Cl)nc2c1ncn2Cc1ccc(C(=O)Nc2ccc(Br)cc2N)cc1 | –
10330 | – | – | – | – | CCNc1nc(Cl)nc2c1ncn2Cc1ccc(C(=O)Nc2ccc(Br)cc2N)cc1 | –
4240 | – | – | – | – | CCN(CC)c1nc(Cl)nc2c1ncn2Cc1ccc(C(=O)Nc2ccc(F)cc2N)cc1 | –
2860 | – | – | – | – | CCCCCNc1nc(Cl)nc2c1ncn2Cc1ccc(C(=O)Nc2ccc(F)cc2N)cc1 | –
1980 | – | – | – | – | CNc1nc(Cl)nc2c1ncn2Cc1ccc(C(=O)Nc2ccc(C)cc2N)cc1 | –
– | 5.61 | – | 5.83 | 6.01 | Nc1ccccc1NC(=O)c1ccc(CNC(=O)OCc2cccnc2)cc1 [ENTINOSTAT] | pIC50 (HepG2): 5.75; pIC50 (K562): 5.92
15.3 | – | – | – | – | Cc1ccc(Nc2nc(Cl)nc3c2ncn3CCCCCCCC(=O)NO)cc1 | –
4410 | – | – | – | – | CCCNc1nc(Cl)nc2c1ncn2Cc1ccc(C(=O)Nc2ccc(F)cc2N)cc1 | –
5570 | – | – | – | – | CCNc1nc(Cl)nc2c1ncn2Cc1ccc(C(=O)Nc2ccc(C)cc2N)cc1 | –
1010 | – | – | – | – | CCCCNc1nc(Cl)nc2c1ncn2Cc1ccc(C(=O)Nc2ccc(C)cc2N)cc1 | –
5770 | – | – | – | – | CCNc1nc(Cl)nc2c1ncn2Cc1ccc(C(=O)Nc2ccc(F)cc2N)cc1 | –
4330 | – | – | – | – | CCN(CC)c1nc(Cl)nc2c1ncn2Cc1ccc(C(=O)Nc2ccc(C)cc2N)cc1 | –
9100 | – | – | – | – | Nc1cc(Br)ccc1NC(=O)c1ccc(Cn2cnc3c(Cl)nc(Cl)nc32)cc1 | –
2640 | – | – | – | – | Nc1cc(F)ccc1NC(=O)c1ccc(Cn2cnc3c(Cl)nc(Cl)nc32)cc1 | –
2310 | 4.04 | 4.76 | 3.83 | 4.25 | CCNc1nc(Cl)nc2c1ncn2CCCC(=O)NCc1ccc(C(=O)Nc2ccccc2N)cc1 | –

IC50 (Histone deacetylase) [nM] | pIC50 (HCT-116) | pIC50 (MDA-MB-231 [1]) | pIC50 (A549) | pIC50 (SGC-7901) | SMILES | further results
3430 | 4.84 | 5.01 | 3.75 | 4.71 | CCCCCNc1nc(Cl)nc2c1ncn2CCCC(=O)NCc1ccc(C(=O)Nc2ccccc2N)cc1 | –
3130 | – | – | – | – | CCCNc1nc(Cl)nc2c1ncn2Cc1ccc(C(=O)Nc2ccc(C)cc2N)cc1 | –
1280 | – | – | – | – | CCCCNc1nc(Cl)nc2c1ncn2Cc1ccc(C(=O)Nc2ccc(F)cc2N)cc1 | –
2040 | – | – | – | – | CCCCNc1nc(Cl)nc2c1ncn2Cc1ccc(C(=O)Nc2ccc(Br)cc2N)cc1 | –
25040 | – | – | – | – | Cc1ccc(NC(=O)c2ccc(Cn3cnc4c(Cl)nc(Cl)nc43)cc2)c(N)c1 | –
574 | 5.26 | 7.30 | 6.10 | 5.70 | CCCNc1nc(Cl)nc2c1ncn2Cc1ccc(C(=O)Nc2ccccc2N)cc1 | pIC50 (Histone deacetylase 8): 5.73; pIC50 [2]: 4.36; pIC50 [3]: 5.87; pIC50 (Histone deacetylase 1): 6.51; pIC50 (Histone deacetylase 4): < 4.00; pIC50 (HepG2): 6.92; pIC50 (K562): 5.27; Ratio IC50 (MDA-MB-231 [4]): 4; Ratio IC50 (MDA-MB-231 [5]): 4
1480 | 5.78 | 6.62 | 6.07 | 5.29 | CNc1nc(Cl)nc2c1ncn2Cc1ccc(C(=O)Nc2ccccc2N)cc1 | pIC50 (Histone deacetylase 8): 5.99; pIC50 [2]: 4.66; pIC50 [3]: 5.75; pIC50 (Histone deacetylase 1): 7.11; pIC50 (Histone deacetylase 4): < 4.00; pIC50 (HepG2): 5.64; pIC50 (K562): 7.64; Ratio IC50 (MDA-MB-231 [4]): 4; Ratio IC50 (MDA-MB-231 [5]): 4
3910 | 4.69 | 4.96 | 3.41 | 4.22 | CCN(CC)c1nc(Cl)nc2c1ncn2CCCC(=O)NCc1ccc(C(=O)Nc2ccccc2N)cc1 | –
1640 | 5.82 | 7.22 | 6.07 | 6.00 | CCNc1nc(Cl)nc2c1ncn2Cc1ccc(C(=O)Nc2ccccc2N)cc1 | pIC50 (Histone deacetylase 8): 5.63; pIC50 [2]: 4.50; pIC50 [3]: 5.97; pIC50 (Histone deacetylase 1): 7.03; pIC50 (Histone deacetylase 4): < 4.00; pIC50 (HepG2): 6.80; pIC50 (K562): 5.54; Ratio IC50 (MDA-MB-231 [4]): 4; Ratio IC50 (MDA-MB-231 [5]): 4
950 | 4.95 | 5.25 | 3.78 | 4.19 | CCCCNc1nc(Cl)nc2c1ncn2CCCC(=O)NCc1ccc(C(=O)Nc2ccccc2N)cc1 | –
5020 | 4.06 | 4.81 | 4.01 | 4.57 | CNc1nc(Cl)nc2c1ncn2CCCC(=O)NCc1ccc(C(=O)Nc2ccccc2N)cc1 | –
9260 | – | – | – | – | CCCNc1nc(Cl)nc2c1ncn2Cc1ccc(C(=O)Nc2ccc(Br)cc2N)cc1 | –
3110 | – | – | – | – | CCN(CC)c1nc(Cl)nc2c1ncn2Cc1ccc(C(=O)Nc2ccc(Br)cc2N)cc1 | –
2030 | – | – | – | – | CCCCCNc1nc(Cl)nc2c1ncn2Cc1ccc(C(=O)Nc2ccc(C)cc2N)cc1 | –
2160 | – | – | – | – | CNc1nc(Cl)nc2c1ncn2Cc1ccc(C(=O)Nc2ccc(Br)cc2N)cc1 | –
1730 | – | – | – | – | CNc1nc(Cl)nc2c1ncn2Cc1ccc(C(=O)Nc2ccc(F)cc2N)cc1 | –

SMILES | IC50 (Histone deacetylase) [nM] | pIC50 (HCT-116) | pIC50 (MDA-MB-231 [1]) | pIC50 (A549) | pIC50 (SGC-7901) | further results
O=C(CCCCCCC(=O)Nc1ccccc1)NO [VORINOSTAT] | – | 5.81 | 5.81 | – | 5.67 | half-life (in vitro): 30 min
